Experimental data from BindingDB's records for doi:10.3109/14756360903389872 (Medical University, 2010).

Tests used:
Assay in all cases: Antiamidolytic Assay
Plasminogen = Plasminogen (Homo sapiens, UniProt P00747)
Description: (§1) Quantities of 0.2 mL of examined preparation (as control, 0.15 M NaCl), buffer, and 0.1 mL of enzyme solution were mixed together. The mixture was incubated at 37°C for 3 min then the synthetic substrate solution in the same buffer was added. After 20 min of incubation, the reaction was stopped by adding 0.1 mL of 50% acetic acid, and the absorbance of the released p-nitroaniline was measured at 405 nm.

[1] = biological target: Urokinase-type plasminogen activator (Homo sapiens, UniProt P00749)
Description: as §1

Serine protease 1 = Serine protease 1 (Homo sapiens, UniProt P07477)
Description: as §1

Plasminogen, sequence (P00747 97-580 limits assumed): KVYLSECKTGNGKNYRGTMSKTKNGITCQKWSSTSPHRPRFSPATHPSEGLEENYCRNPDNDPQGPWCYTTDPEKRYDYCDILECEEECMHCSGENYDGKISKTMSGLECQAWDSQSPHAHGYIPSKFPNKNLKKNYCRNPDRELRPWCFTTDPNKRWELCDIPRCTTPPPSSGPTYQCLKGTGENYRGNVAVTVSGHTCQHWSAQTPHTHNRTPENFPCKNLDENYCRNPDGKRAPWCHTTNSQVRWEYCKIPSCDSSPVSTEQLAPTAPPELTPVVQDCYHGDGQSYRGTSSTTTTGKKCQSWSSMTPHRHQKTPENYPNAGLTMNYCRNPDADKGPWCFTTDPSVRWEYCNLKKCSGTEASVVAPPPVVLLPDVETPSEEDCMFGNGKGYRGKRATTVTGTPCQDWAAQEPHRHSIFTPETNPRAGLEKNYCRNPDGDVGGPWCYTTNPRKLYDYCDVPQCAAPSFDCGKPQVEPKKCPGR
Plasminogen, sequence (P00747 581-810 limits assumed): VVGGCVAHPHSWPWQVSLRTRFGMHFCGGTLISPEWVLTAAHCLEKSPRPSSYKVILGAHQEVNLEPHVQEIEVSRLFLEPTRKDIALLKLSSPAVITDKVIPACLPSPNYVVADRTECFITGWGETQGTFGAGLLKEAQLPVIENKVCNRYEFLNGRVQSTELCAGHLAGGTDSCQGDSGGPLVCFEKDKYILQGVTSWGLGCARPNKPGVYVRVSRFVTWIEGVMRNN
Serine protease 1, sequence (P07477 whole entry): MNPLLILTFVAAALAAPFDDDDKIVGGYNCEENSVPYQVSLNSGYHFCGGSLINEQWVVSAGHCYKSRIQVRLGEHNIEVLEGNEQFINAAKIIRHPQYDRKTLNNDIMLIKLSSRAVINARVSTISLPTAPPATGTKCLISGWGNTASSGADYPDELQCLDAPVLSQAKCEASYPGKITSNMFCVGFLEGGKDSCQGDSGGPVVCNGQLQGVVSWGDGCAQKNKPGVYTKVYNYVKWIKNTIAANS

Nc1cccc(C(=O)Nc2cccc(C(=O)NCCCCNC(=O)c3cccc(NC(=O)c4cccc(N)c4)c3)c2)c1 [Carbocyclic minor groove binder, 5]
IC50 (Plasminogen): 20 µM
IC50 [1]: 10 µM

Cn1cc(NC(=O)c2cc(NC(=O)CN=C(N)N)cn2C)cc1C(=O)NCCC(=N)N
IC50 (Plasminogen): 40 µM
IC50 [1]: 30 µM

Nc1cccc(C(=O)Nc2cccc(C(=O)NCCCNC(=O)c3cccc(NC(=O)c4cccc(N)c4)c3)c2)c1 [Carbocyclic minor groove binder, 4]
IC50 (Plasminogen): 20 µM

Nc1cccc(C(=O)Nc2cccc(C(=O)NCCCCCNC(=O)c3cccc(NC(=O)c4cccc(N)c4)c3)c2)c1 [Carbocyclic minor groove binder, 6]
IC50 (Plasminogen): 10 µM
IC50 [1]: 14 µM
IC50 (Serine protease 1): 20 µM

N=C(N)c1ccc(OCCCCCOc2ccc(C(=N)N)cc2)cc1 [4-[5-(4-carbamimidoylphenoxy)pentoxy]benzenecarboximidamide;2-oxidanylethanesulfonic acid]
IC50 (Plasminogen): < 10 µM
IC50 [1]: 20 µM
IC50 (Serine protease 1): 100 µM
